From US9125430B2, “Stable and bioavailable compositions of isomers of carotenoids for skin and hair” (Nestec S.A., priority 2006, dated 2015)

Assay: Stability of pure lycopene isomers in n-hexane during storage at room temperature
Assay type: physicochemical
Settings: for concentration 5-Z / concentration all E / concentration x-Z / concentration 9-Z / concentration 13-Z: n-hexane; for transformation pathway during storage: storage in n-hexane
Procedure: Pure 5-Z, 9-Z, 13-Z and all-E lycopene were isolated from isomerised tomato oleoresin (submitted to 1 hour heating), by collecting the fractions containing the corresponding peaks after HPLC separation (see below the experimental conditions). Peaks were collected during two consecutive HPLC runs and the corresponding fractions were pooled.
Amount of total lycopene was determined by reverse phase HPLC on a C18 precolumn (ODS Hypersil, 5 μm, 20×4 mm; Hewlett Packard, Geneva, Switzerland) and a C18 column (Nova pak, 3.9 μm i.d.×300 mm length, Millipore, Volketswil, Switzerland). […] The mobile phase flow rate was 1.5 mL/min. Lycopene isomer profiles were determined by normal phase HPLC according to the method described by Schierle et al. (1997). Food. Chem. 59: 459. Samples of isomerized oleoresins were dissolved in n-hexane containing 50 ppm BHT and spun at maximum speed in an Eppendorf Lab centrifuge. The resulting supernatants were immediately analyzed by HPLC. The HPLC system used was a 1100 series Hewlett-Packard model equipped with an ultraviolet-visible photodiode array detector. Data were simultaneously acquired at 470 nm, 464 nm, 346 nm and 294 nm. Samples (10 μl) were separated using a combination of three Nucleosil 300-5 columns (4 mm internal diameter×250 mm length, Macherey-Nagel). […] Flow rate was 0.8 mL/min. Lycopene Z-isomers were identified according to literature data.
Amounts of lycopene isomers were calculated based on surface areas of the HPLC peaks using the same extinction coefficient as the all-E lycopene. Therefore, the lycopene concentration in products containing Z-isomers is slightly underestimated since it is recognized that the extinction coefficients of Z-isomers are lower than that of the all-E isomer. Conditions for Stability Tests
Stability of lycopene isomers was investigated both in n-hexane and in a tomato oleoresin isomerized by 4 hour heating in ethyl acetate. For this purpose, pure lycopene isomers were stored for 33 days in n-hexane at room temperature and in the absence of light, and the isomerized tomato oleoresin was kept for 55 days at room temperature in the absence of light. Total lycopene concentration and lycopene isomer profiles were measured at various time intervals during the storage.

[1] = room temperature, absence of light, 0 days
[2] = room temperature, absence of light, 1 day
[3] = room temperature, absence of light, 2 days
[4] = room temperature, absence of light, 5 days
[5] = room temperature, absence of light, 12 days
[6] = room temperature, absence of light, 33 days

Row | Compound | concentration 5-Z [1] | concentration all E [1] | concentration x-Z [1] | concentration 5-Z [2] | concentration all E [2] | concentration x-Z [2] | concentration 5-Z [3] | concentration all E [3] | concentration x-Z [3] | concentration 5-Z [4] | concentration all E [4] | concentration x-Z [4] | concentration 5-Z [5] | concentration 9-Z [5] | concentration 13-Z [5] | concentration all E [5] | concentration x-Z [5] | concentration 5-Z [6] | concentration 9-Z [6] | concentration 13-Z [6] | also measured
1 | CC(C)=CCC\C(C)=C/C=C/C(C)=C/C=C/C(C)=C/C=C/C=C(C)/C=C/C=C(C)/C=C/C=C(\C)CCC=C(C)C [5-Z lycopene] | 95.5 % of total isomers | 1.1 % of total isomers | 3.4 % of total isomers | 84.3 % of total isomers | 2.2 % of total isomers | 13.5 % of total isomers | 76.9 % of total isomers | 2.4 % of total isomers | 20.6 % of total isomers | 68.4 % of total isomers | 3.9 % of total isomers | 27.7 % of total isomers | 65.3 % of total isomers | 0.7 % of total isomers | 1.7 % of total isomers | 5.6 % of total isomers | 26.7 % of total isomers | 53.5 % of total isomers | 2.3 % of total isomers | 2.8 % of total isomers | concentration all E [6]: 10.7 % of total isomers; concentration x-Z [6]: 30.7 % of total isomers; transformation pathway during storage: principally transformed into other Z-isomers
2 | CC(C)=CCC/C(C)=C/C=C/C(C)=C\C=C\C(C)=C\C=C\C=C(C)\C=C\C=C(C)\C=C\C=C(/C)CCC=C(C)C [9-Z lycopene] | 1.8 % of total isomers | 4.4 % of total isomers | 0 % of total isomers | 2.1 % of total isomers | 5.8 % of total isomers | 2.8 % of total isomers | 11.6 % of total isomers | 6.0 % of total isomers | 5.9 % of total isomers | 1.5 % of total isomers | 5.6 % of total isomers | 8.6 % of total isomers | 2.3 % of total isomers | 66.5 % of total isomers | 8.2 % of total isomers | 7.0 % of total isomers | 15.9 % of total isomers | 4.1 % of total isomers | 56.0 % of total isomers | 10.5 % of total isomers | concentration 9-Z [1]: 93.3 % of total isomers; concentration 13-Z [1]: 0.6 % of total isomers; concentration 9-Z [2]: 87.1 % of total isomers; concentration 13-Z [2]: 2.3 % of total isomers; concentration 9-Z [3]: 83.5 % of total isomers; concentration 13-Z [3]: 3.1 % of total isomers; concentration 9-Z [4]: 79.2 % of total isomers; concentration 13-Z [4]: 5.2 % of total isomers; concentration all E [6]: 9.8 % of total isomers; concentration x-Z [6]: 19.7 % of total isomers; transformation pathway during storage: principally transformed into other Z-isomers
3 | CC(C)=CCC/C(C)=C/C=C/C(C)=C/C=C/C(C)=C\C=C\C=C(C)\C=C\C=C(C)\C=C\C=C(/C)CCC=C(C)C [13-Z lycopene] | 0 % of total isomers | 2.4 % of total isomers | 1.0 % of total isomers | 0 % of total isomers | 42.6 % of total isomers | 0 % of total isomers | 0 % of total isomers | 59.8 % of total isomers | 1.5 % of total isomers | 1.9 % of total isomers | 68.9 % of total isomers | 4.3 % of total isomers | 5.3 % of total isomers | 2.6 % of total isomers | 20.8 % of total isomers | 65.5 % of total isomers | 5.8 % of total isomers | 11.7 % of total isomers | 4.2 % of total isomers | 16.9 % of total isomers | fraction of the isomer transformed / converted into other isomers (after 33 day storage in n-hexane, room temperature, absence of light): more than 80%; stability compared with the 5-Z, 9-Z and all-E isomers (both stability tests (n-hexane and tomato oleoresin)): much less stable; concentration 9-Z [1]: 0 % of total isomers; concentration 13-Z [1]: 96.6 % of total isomers; concentration 9-Z [2]: 0.4 % of total isomers; concentration 13-Z [2]: 57.0 % of total isomers; concentration 9-Z [3]: 0 % of total isomers; concentration 13-Z [3]: 38.7 % of total isomers; concentration 9-Z [4]: 1.5 % of total isomers; concentration 13-Z [4]: 23.4 % of total isomers; concentration all E [6]: 57.0 % of total isomers; concentration x-Z [6]: 10.2 % of total isomers; transformation pathway during storage: mainly converted into the all-E isomer
4 | CC(C)=CCC/C(C)=C/C=C/C(C)=C/C=C/C(C)=C/C=C/C=C(C)/C=C/C=C(C)/C=C/C=C(\C)CCC=C(C)C [all-E lycopene] | 0.5 % of total isomers | 97.6 % of total isomers | 0.1 % of total isomers | 1.2 % of total isomers | 86.0 % of total isomers | 1.5 % of total isomers | 2.6 % of total isomers | 78.4 % of total isomers | 3.0 % of total isomers | 3.8 % of total isomers | 69.3 % of total isomers | 5.1 % of total isomers | 6.4 % of total isomers | 2.0 % of total isomers | 18.2 % of total isomers | 67.8 % of total isomers | 5.6 % of total isomers | 13.4 % of total isomers | 3.8 % of total isomers | 15.7 % of total isomers | concentration 9-Z [1]: 0.5 % of total isomers; concentration 13-Z [1]: 1.4 % of total isomers; concentration 9-Z [2]: 1.2 % of total isomers; concentration 13-Z [2]: 10.1 % of total isomers; concentration 9-Z [3]: 1.1 % of total isomers; concentration 13-Z [3]: 15.0 % of total isomers; concentration 9-Z [4]: 2.2 % of total isomers; concentration 13-Z [4]: 19.6 % of total isomers; concentration all E [6]: 58.7 % of total isomers; concentration x-Z [6]: 8.4 % of total isomers
